From US20230132973A1, “DIHYDRO-SPIRO[INDOLINE-3:1'-iSOQUINOLIN]-2-ONES AS ANTIMALARIAL AGENTS” (The University of Buea, priority 2020, published 2023)
Entries after “also recorded” stand apart in the source; their conditions may differ. Read-outs that look alike come from different tables or passages of the source.

How the values were obtained:
[1] = test system: CQ-sensitive 3D7 strain of P. falciparum; test: SYBR green I-based parasite growth inhibition assay, 3D7 strain; assay type: cell-based, Plasmodium falciparum; settings: for EC50: Plasmodium falciparum
[2] = test system: vacuolar lipid dynamics in P. falciparum; test: Effect on vacuolar lipid dynamics (Oil Red O staining); assay type: cell-based, Plasmodium falciparum; settings: trophozoite stage parasites, 24 h
Procedure: Because cellular vacuolation may result from perturbation of intracellular lipid content, we investigated the effect of (±)-moxiquindole on vacuolar lipid dynamics using fluorescent Oil red O as lipid stain.
The effect of the compounds on intracellular lipid dynamics was assessed by measurement of intracellular lipid content using Oil Red O. Briefly, early rings or late trophozoite stage parasites (30 hpi) were treated with the compounds or controls for 24 h under regular culture conditions. Following treatment, inhibitors were removed by centrifugation at 2500 rpm for 5 min and pellets were washed in equal volumes of 1×PBS. The parasites were fixed with 4% paraformaldehyde for 30 min at room temperature and pelleted at 2500. Three volumes of Oil Red O (ORO) stock solution (5 mg/mL in 100% isopropanol) were diluted in two volumes of distilled water and filtered prior to use. About 100 μL of the ORO were added to parasite pellets in the tube and incubated for 30 minutes. Parasites were pelleted and washed twice in distilled water. Thereafter, parasites were deposited on pre-cleaned coverslips and air dried. Dried coverslips were mounted in DAPI antifade reagent onto cleaned slides, air dried and viewed under a 100× oil immersion lens and images acquired using a Leica DM1000 fluorescence microscope suite (LAS version 4.5).

[3] = test system: asexual blood stages of P. falciparum; test: Life cycle stage specific action by microscopy of Giemsa-stained thin smears; assay type: cell-based, Plasmodium falciparum; settings: 10 μM, 24 h; for stage specific action on asexual blood stages (ring, trophozoite, schizont): treated at early ring, mid-trophozoite or mid-schizont; for vacuolation in treated parasites: Giemsa-stained thin smears
Procedure: The life cycle stage specific action of (±)-moxiquindole was determined by treatment of parasites at different time points followed by microscopic analysis of Giemsa-stained thin blood smears. Stage proportions were calculated for each asexual parasite stage in the drug treated wells relative to the same stage in the negative control wells.
The inhibitory effects of active compounds or reference drugs on parasite development and schizont rupture were determined by quantitative light microscopy as previously described (Lee et al., 2015). Briefly, synchronized cultures (1.5% hematocrit and 3% parasitemia) at different time-points (early rings, mid trophozoites and schizonts) were treated with either test compound or controls at 10 μM final concentration for 24 h under regular culture conditions. Following treatment, Giemsa-stained thin smears were prepared and parasites were counted in 1,000 erythrocytes per treatment. Stage proportions in test wells relative to solvent control wells were calculated and used to assess the in vitro effects of each compound on trophozoites and schizont development as well as merozoite egress and invasion.

[4] = test system: Malaria parasites (ring-stage parasitized erythrocytes); test: Drug-combination (drug-drug interaction) studies, SYBR-Green I; assay type: cell-based, Plasmodium falciparum; settings: in combination with artemisinin
Procedure: In view of the overlapping modes of action between the hybrids and some known antimalarial drugs in terms of targeted cellular processes, we investigated the interaction between these compounds at variable combination ratios. Malaria parasites were continuously cultured and synchronized as earlier described prior to the assay.
Briefly, two-fold drug dilutions were prepared using a variable potency ratio drug combination approach, starting at 5EC50A: 0EC50B to 0EC50A: 5EC50B in serum-free medium, where A and B represent the different partner molecules.
The test was run for 72 h and terminated when the untreated parasites were at the early trophozoite stage of the second cycle. Parasite viability was assessed by the SYBR-Green I fluorescence-based assay as earlier described. Dose-response curves and EC50 values of each combination and drug alone were obtained using GraphPad Prism v.5.0 and Microsoft Excel was used to calculate mean EC50 values and the standard error of the mean.

[5] = test system: P. chabaudi-infected mice; test: Peter's four-day suppressive test (chemosuppressive activity); assay type: in vivo, Swiss albino mice
Procedure: Following the encouraging in vitro antiplasmodial activities and cytotoxicity profiles reported above, as well as the ADMET properties of the primary and secondary hits identified in this study, studies were carried out to assess the in vivo efficacy of these compounds in laboratory mice. Chemosuppressive potentials were assessed using the Peter's four-day test whereas the ability of each compound to cure an established plasmodial infection was determined using the Rane's test. To assess the in vivo chemosuppressive potential of the compounds, groups of P. chabaudi-infected mice were treated by ip injection for 3 days following infection using fixed doses of 0.03, 0.3, 3, 10, or 30 mg/kg for each compound. The percent suppression of parasite growth in treated groups was calculated relative to the control group and the growth inhibition curves plotted.
Eight-week old male Swiss albino mice weighing approximately 23±3 g were housed in cages and maintained in a well-ventilated room under standard environmental conditions of temperature at 22-24° C., under a 12 h dark-light cycle, with food and water provided ad libitum.
The animals were allowed one week acclimation before commencement of the study. Three (3) mice were infected with stocked blood containing Plasmodium chabaudi parasites and used as donors. In brief, frozen blood containing the sulfadoxine/pyrimethamine resistant P. c. chabaudi (AS(50S/P) parasites was thawed and about 200 μL parasites were injected intra-peritoneally (i.p) into each of the three mice and parasitemia monitored through blood smear until a 20% threshold was reached. These infected animals then served as donors to the experimental animals. Ethical approval for the study was obtained from the University of Douala Institutional Review Board (N^oIEC-UD/1146/09/2017/A).
In vivo efficacies were conducted following a modification of the Peter's four-day suppressive test as previously described (Lee et al., 2014, Tarkang et al., 2014). Briefly, following parasite passage in donor mice, the mice were euthanized using diethyl ether and P. c. chabaudi infected blood was obtained by cardiac puncture and placed into heparinized tubes. The blood was then diluted with phosphate buffered saline (PBS) and immediately used to infect the experimental mice. Mice were randomly divided into seven (7) groups of 3 animals and each mouse was injected with 1×10^7 infected erythrocytes intraperitoneally (Day 0). The mice were kept for 24 hours to establish infection and Giemsa thin blood smears were prepared to quantify parasites (Day 1). Thereafter, groups 1, 2, 3, 4 and 5 were treated with compounds dissolved in 1×PBS, intraperitoneally at dosages of 30, 10, 3, 0.3 and 0.03 mg/kg body weight, respectively, while groups 6 and 7 were treated with vehicle or chloroquine at 10 mg/kg, respectively for three consecutive days (Day 1-Day 3). Twenty-four (24) and ninety-six (96) hours post-infection, thin blood smears were prepared from each animal with blood obtained from the tail vein, fixed in methanol and stained with 10% Giemsa.
Parasitemia was determined by light microscopy using a 100× objective lens and the following equation: […]
Average percentage chemosuppression was calculated as
Where A is mean parasitemia in negative control and B is mean parasitemia in test group

[6] = test system: hemoglobin metabolism in P. falciparum ring and trophozoite stage parasites; test: Effect on hemoglobin degradation (intraparasitic hemoglobin content); assay type: cell-based, Plasmodium falciparum; settings: 10 μM, 24 h, relative to E64-treated cultures
Procedure: Owing to the fact that the DSIIQs are constructed from the THIQ pharmacophore of naphthylisoquinolines, which appear to target proteases involved in hemoglobin degradation, we assessed the effect of this DSIIQ on hemoglobin metabolism. Briefly, tightly synchronized ring and trophozoite stage parasites were treated with test compounds for 24 h followed by parasite isolation and quantification of the intraparasitic hemoglobin contents.
To investigate drug effects on hemoglobin degradation, early ring and mid-trophozoite stage parasites (1.5% hematocrit, 5% parasitemia) were co-cultured with the test compounds or experimental controls (0.1% DMSO, chloroquine, artemisinin NITD609 and E64) at a final concentration of 10 μM. The cultures were incubated at 37° C. and 5% CO2 for 24 h. Following incubation, inhibitors were removed by centrifugation at 1800 rpm for 5 min. The pellets were washed in an equal volume of 1×PBS and re-suspended in same volume of 0.1% saponin (in 1×PBS) for 3 min. Isolated parasites were pelleted at 2500 rpm for 5 min and washed twice in an equal volume of 1×PBS. The resulting parasite pellets were permeabilized by treatment in 20 μL of 1% Triton X-100 (in 1×PBS) for 5 min. Intraparasitic hemoglobin content was measured at 550 nm using a Nanodrop spectrophotometer, and folds increase in intra-parasite hemoglobin content was calculated relative to the E64-treated controls.

## COc1cc2c(cc1OC)C1(NCC2)C(=O)Nc2ccc(F)cc21 (stereo not drawn) [Compound 8o, 5-fluoro-6′,7′-dimethoxy-3′,4′-dihydro-2′H-spiro[indoline-3,1′-isoquinolin]-2-one]
other
  melting point: 98 to 99 °C

## COc1cc2c(cc1OC)C1(NCC2)C(=O)N(Cc2ccc(Br)cc2)c2ccc(Cl)cc21 (stereo not drawn) [Compound 8k]
[1]; primary screening at 10 μM, Pf 3D7, 72 h
  parasite growth inhibition in primary assays: ~52%

## C[C@@H]1CC[C@H]2[C@@H](C)C(=O)O[C@@H]3O[C@@]4(C)CC[C@@H]1[C@]32OO4 [Artemisinin, artemisinin]
[2]
  neutral lipid bodies / vacuolar lipid uptake (Oil red O): no effect on vacuolar lipid uptake
[1]; Pf 3D7, 72 h, read-out: EC50
  EC50: 15.9 nM
[3]
  stage specific action on asexual blood stages (ring, trophozoite, schizont): high proportions of the treated parasite stage at each treatment time-point; also recorded: exhibits inhibitory activities against ring-to-trophozoite development, trophozoite-to-schizont development and schizont rupture

## COc1cc2c(cc1OC)C1(NCC2)C(=O)Nc2ccc(N)cc21 (stereo not drawn) [Compound 8f, 5-amino-6′,7′-dimethoxy-3′,4′-dihydro-2′H-spiro[indoline-3,1′-isoquinolin]-2-one]
other
  melting point: 186 to 187 °C

## COc1cc2c(cc1OC)C1(NCC2)C(=O)Nc2cc(F)c(F)cc21 (stereo not drawn) [Compound 8g, 5,6-difluoro-6′,7′-dimethoxy-3′,4′-dihydro-2′H-spiro[indoline-3,1′-isoquinolin]-2-one]
other
  melting point: 220 to 221 °C

## C[C@H]1Cc2c([nH]c3cc(Cl)c(F)cc23)[C@@]2(N1)C(=O)Nc1ccc(Cl)cc12 [NITD609]
[3]
  stage specific action on asexual blood stages (ring, trophozoite, schizont): exhibits inhibitory activities against ring-to-trophozoite development, trophozoite-to-schizont development and schizont rupture
  vacuolation in treated parasites: induced vacuolation in parasites

## CCN(CC)CCCC(C)Nc1ccnc2cc(Cl)ccc12 (stereo not drawn) [chloroquine]
[4]
  combination index (CI): 1.183
[2]
  neutral lipid bodies / vacuolar lipid uptake (Oil red O): devoid of neutral lipid bodies
[1]; 3D7, 72 h
  EC50: 13.9 nM
[3]
  stage specific action on asexual blood stages (ring, trophozoite, schizont): rapid accumulation of early rings and trophozoites but not schizonts; also recorded: exhibits inhibitory activities against ring-to-trophozoite development, trophozoite-to-schizont development and schizont rupture
[5]; 10 mg/kg, compared with 98% by test compounds at 3.0 mg/kg
  suppression of parasitemia: comparable level of suppression of parasitemia

## COc1cc2c(cc1OC)C1(NCC2)C(=O)Nc2ccc([N+](=O)[O-])cc21 (stereo not drawn) [Compound 8e, 6′,7′-dimethoxy-5-nitro-3′,4′-dihydro-2′H-spiro[indoline-3,1′-isoquinolin]-2-one]
other
  melting point: 174 to 175 °C

## COc1cc2c(cc1OC)C1(NC(C)C2)C(=O)Nc2ccc(Cl)cc21 (racemic) [Compound 11, 5-chloro-6′,7′-dimethoxy-3′-methyl-3′,4′-dihydro-2′H-spiro[indoline-3,1′-isoquinolin]-2-one]
[1]; Pf 3D7
  times more potent than (±)-moxiquindole: 80 times
[1]; Pf 3D7 EC50 ratio
  fold more active than the primary hit (±)-moxiquindole: 77 fold
[1]; Pf 3D7, 72 h, read-out: EC50
  EC50: 24 nM
[3]
  stage specific action on asexual blood stages (ring, trophozoite, schizont): exhibits inhibitory activities against ring-to-trophozoite development, trophozoite-to-schizont development and schizont rupture
  vacuolation in treated parasites: induced vacuolation in parasites
[6]
  intraparasitic hemoglobin content / accumulation: accumulation of intra-parasitic hemoglobin
[5]; 0.3 mg/kg ip
  suppression of parasitemia: slight advantage over (±)-moxiquindole
[5]; 3.0 mg/kg ip
  suppression of parasitemia: 98%
[5]; Mus musculus, ip, 72 h, read-out: suppressive ED50
  ED50: 0.049 mg/kg

## CC(C)C[C@H](NC(=O)[C@H]1O[C@@H]1C(=O)O)C(=O)NCCCCN=C(N)N (relative stereo) [Compound E64, L-trans-epoxysuccinyl-leucylamido-(4-guanidino)]
[2]
  neutral lipid bodies / vacuolar lipid uptake (Oil red O): no effect on vacuolar lipid uptake
[3]
  stage specific action on asexual blood stages (ring, trophozoite, schizont): only inhibiting schizont accumulation
[6]
  intraparasitic hemoglobin content / accumulation: minimal effect on hemoglobin degradation
